Reference: patent US10508107B2, “Morpholine derivative” (Hoffmann-La Roche Inc., priority 2016, dated 2019)
Where two headings read alike, the source gives them in different places.

Columns and labels:
human TAAR1 = human TAAR1 (Homo sapiens (Human), UniProt Q96RJ0); experiment: cAMP functional assay in HEK293 cells expressing human TAAR1; type: cell-based; conditions: for hTAAR1 efficacy*: % agonist activity, β-phenylethylamine = 100% agonism; for EC50: cAMP, HEK293 cells expressing human TAAR1, read-out: hTAAR1 EC50
Sequence of human TAAR1 (Q96RJ0 whole entry): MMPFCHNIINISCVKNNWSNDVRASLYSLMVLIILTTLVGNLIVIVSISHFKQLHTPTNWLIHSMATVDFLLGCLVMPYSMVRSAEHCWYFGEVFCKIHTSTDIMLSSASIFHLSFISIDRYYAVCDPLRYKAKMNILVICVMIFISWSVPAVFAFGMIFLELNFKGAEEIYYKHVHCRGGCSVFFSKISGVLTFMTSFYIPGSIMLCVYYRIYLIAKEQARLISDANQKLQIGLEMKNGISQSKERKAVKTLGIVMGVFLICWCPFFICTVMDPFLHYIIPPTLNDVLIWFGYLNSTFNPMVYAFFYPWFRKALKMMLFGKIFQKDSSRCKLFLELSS
Description: For the construction of expression plasmids the coding sequences of human TAAR 1 were amplified from genomic DNA essentially as described by Lindemann et al.[14]. The Expand High Fidelity PCR System (Roche Diagnostics) was used with 1.5 mM Mg^2+ and purified PCR products were cloned into pCR2.1-TOPO cloning vector (Invitrogen) following the instructions of the manufacturer. PCR products were subcloned into the pIRESneo2 vector (BD Clontech, Palo Alto, Calif.), and expression vectors were sequence verified before introduction in cell lines.
HEK293 cells (ATCC # CRL-1573) were cultured essentially as described by Lindemann et al. (2005). For the generation of stably transfected cell lines HEK293 cells were transfected with the pIRESneo2 expression plasmids containing the TAAR coding sequences (described above) with Lipofectamine 2000 (Invitrogen) according to the instructions of the manufacturer, and 24 hrs post transfection the culture medium was supplemented with 1 mg/ml G418 (Sigma, Buchs, Switzerland). After a culture period of about 10 d clones were isolated, expanded and tested for responsiveness to trace amines (all compounds purchased from Sigma) with the cAMP Biotrak Enzyme immunoassay (EIA) System (Amersham) following the non-acetylation EIA procedure provided by the manufacturer.
cAMP measurements were performed as described previously (Revel et al., Proc. Natl. Acad. Sci. USA 2011, 108, 8485-8490). In brief, cells that expressed human TAAR1 were plated on 96-well plates (BIOCOAT 6640; Becton Dickinson, Allschwil, Switzerland) and incubated for 20 h at 37° C. Prior to stimulation of the cells with a broad concentration range of agonists for 30 min at 37° C., the cells were washed with PBS and preincubated with PBS that contained 1 mM 3-isobutyl-1-methylxanthine for 10 min at 37° C. and 5% CO2. Stimulation with 0.2% DMSO was set as the basal level, and the effect of 30 μM β-PEA was set as the maximal response. Subsequently, the cells were lysed, and cAMP assays were performed according to the manufacturer's instructions (cAMP kit; Upstate/Millipore, Schaffhausen, Switzerland). Finally, the plates were read with a luminometer (1420 Multilabel counter; PerkinElmer, Schwerzenbach, Switzerland), and the amount of cAMP was calculated. The results were obtained from at least three independent experiments. Experiments were run in duplicate or triplicate. EC50 values are presented as mean ±standard deviation (in μM).

human DAT = human DAT (Homo sapiens (Human), UniProt Q01959); experiment: Binding to dopamine transporter (DAT) in vitro, [3H]-WIN35,428 SPA; conditions: for DAT selectivity ratio versus hTAAR1 EC50: DAT Ki / hTAAR1 EC50; for Ki: [3H]-WIN35,428 radioligand
Sequence of human DAT (Q01959 whole entry): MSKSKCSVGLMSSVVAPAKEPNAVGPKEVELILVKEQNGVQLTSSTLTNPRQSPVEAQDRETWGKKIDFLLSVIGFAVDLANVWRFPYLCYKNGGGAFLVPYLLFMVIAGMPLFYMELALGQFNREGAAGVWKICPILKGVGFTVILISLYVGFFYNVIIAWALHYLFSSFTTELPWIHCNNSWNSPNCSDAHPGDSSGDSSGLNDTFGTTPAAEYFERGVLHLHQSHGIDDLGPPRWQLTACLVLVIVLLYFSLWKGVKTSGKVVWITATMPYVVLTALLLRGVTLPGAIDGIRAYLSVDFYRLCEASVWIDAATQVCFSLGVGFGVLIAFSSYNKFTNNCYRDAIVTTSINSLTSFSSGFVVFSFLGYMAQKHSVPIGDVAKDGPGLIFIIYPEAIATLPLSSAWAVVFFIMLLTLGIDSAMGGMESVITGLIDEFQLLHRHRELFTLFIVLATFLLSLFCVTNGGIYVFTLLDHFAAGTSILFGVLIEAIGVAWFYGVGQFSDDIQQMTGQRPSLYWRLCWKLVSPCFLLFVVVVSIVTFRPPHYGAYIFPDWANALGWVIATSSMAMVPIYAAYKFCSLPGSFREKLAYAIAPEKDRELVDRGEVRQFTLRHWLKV
Description: Binding to dopamine transporter (DAT) in vitro. Human embryonic kidney (HEK) 293 cells (Invitrogen, Zug, Switzerland) stably transfected with human DAT were cultured. The cells were collected and washed three times with phosphate-buffered saline (PBS). The pellets were frozen at −80° C. The pellets were then resuspended in 400 ml of 20 mM HEPES-NaOH, pH 7.4, that contained 10 mM EDTA at 4° C. After homogenization with a Polytron (Kinematica, Lucerne,
Switzerland) at 10000 rotations per minute (rpm) for 15 s, the homogenates were centrifuged at 48000×g for 30 min at 4° C. Aliquots of the membrane stocks were frozen at −80° C. All assays were performed at least three times. The test compounds were diluted in […] of binding buffer (252 mM NaCl, 5.4 mM KCl, 20 mM Na2HPO4, 3.52 mM KH2PO4, pH 7.4) and 10 point dilution curves were made and transferred to 96-well white polystyrene assay plates (Sigma-Aldrich, Buchs, Switzerland). […] Twenty microliters of binding buffer alone in the assay plate defined the total binding, whereas binding in the presence of 10 μM indatraline defined nonspecific binding. Frozen DAT membrane stocks were thawed and resuspended to a concentration of approximately 0.04 mg protein/ml binding buffer (1:1 diluted in H2O) using a polytron tissue homogenizer. The membrane homogenates (40 μg/ml) were then lightly mixed for 5-30 min with polyvinyl toluene […] wheat germ agglutinin-coated scintillation proximity assay (WGASPA; Amersham Biosciences) beads at 7.7 mg beads/ml homogenate. One hundred thirty microliters of the membrane/bead mixture were added to each well of the assay plate that contained radioligand and test compounds (final volume in each well, 200 μl) to start the assay, which was incubated for approximately 2 h at room temperature with agitation. The assay plates were then counted in the PVT SPA counting mode of a Packard Topcount. […] Non-linear regression was used to fit the data to sigmoid curves and determine IC50 values for binding and uptake. Ki values for binding and uptake were calculated using the following Cheng-Prusoff equation: Ki=IC50/(1+[S]/Km).

hERG potassium channel = hERG potassium channel (Homo sapiens (Human), UniProt Q12809); experiment: hERG whole-cell patch-clamp in stably transfected CHO cells; type: cell-based; conditions: for selectivity ratio: pH 7.4, hERG IC20 / hTAAR1 EC50, read-out: hERG selectivity ratio versus hTAAR1 EC50; for IC50: patch-clamp, CHO cells, 36±1° C.
Sequence of hERG potassium channel (Q12809 whole entry): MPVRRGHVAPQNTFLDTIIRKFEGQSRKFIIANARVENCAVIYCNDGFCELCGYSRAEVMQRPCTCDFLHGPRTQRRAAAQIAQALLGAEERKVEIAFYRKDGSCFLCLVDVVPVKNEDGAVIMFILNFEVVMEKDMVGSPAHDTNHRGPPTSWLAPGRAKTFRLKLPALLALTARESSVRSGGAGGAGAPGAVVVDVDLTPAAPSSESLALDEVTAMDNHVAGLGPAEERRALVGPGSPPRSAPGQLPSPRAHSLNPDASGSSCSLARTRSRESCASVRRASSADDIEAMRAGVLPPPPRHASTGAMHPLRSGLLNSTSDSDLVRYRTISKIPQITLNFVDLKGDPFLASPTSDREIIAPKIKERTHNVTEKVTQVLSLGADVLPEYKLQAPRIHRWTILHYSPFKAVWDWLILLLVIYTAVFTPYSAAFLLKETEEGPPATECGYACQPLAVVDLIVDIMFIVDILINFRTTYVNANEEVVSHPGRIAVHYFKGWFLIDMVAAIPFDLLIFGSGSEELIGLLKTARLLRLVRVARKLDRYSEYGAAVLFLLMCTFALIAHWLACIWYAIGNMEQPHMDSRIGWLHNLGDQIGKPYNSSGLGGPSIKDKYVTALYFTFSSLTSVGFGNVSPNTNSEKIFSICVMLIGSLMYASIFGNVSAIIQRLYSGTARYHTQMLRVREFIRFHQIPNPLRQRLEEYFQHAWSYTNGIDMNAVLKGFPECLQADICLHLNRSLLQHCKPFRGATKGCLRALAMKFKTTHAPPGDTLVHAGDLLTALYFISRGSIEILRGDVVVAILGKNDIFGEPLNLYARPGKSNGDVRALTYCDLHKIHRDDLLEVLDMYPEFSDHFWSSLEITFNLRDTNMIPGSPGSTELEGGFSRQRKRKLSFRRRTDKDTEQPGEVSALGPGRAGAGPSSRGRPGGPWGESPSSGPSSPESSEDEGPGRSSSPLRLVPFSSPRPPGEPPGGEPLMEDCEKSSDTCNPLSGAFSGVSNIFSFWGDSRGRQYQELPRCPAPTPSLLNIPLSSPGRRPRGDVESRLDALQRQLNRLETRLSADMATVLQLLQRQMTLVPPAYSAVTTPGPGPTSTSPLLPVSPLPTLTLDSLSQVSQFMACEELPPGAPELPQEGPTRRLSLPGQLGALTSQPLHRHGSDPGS
Description: The whole-cell patch-clamp technique was used to investigate the effects of the test items on hERG (human-ether-a-go-go related gene) potassium channels in stably transfected CHO cells near physiological temperature (36±1° C.). The effects of compounds on hERG K^+-current parameters were evaluated at 4 concentrations (0.3-3-30-300 μM) in at least 3 CHO cells stably expressing the hERG channel. For electrophysiological measurements cells were seeded onto 35 mm sterile culture dishes containing 2 ml culture medium without Hygromycin B. Cells were cultivated at a density that enabled single cells (without visible connections to neighbouring cells) to be measured. Cells were incubated at 37° C. in a humidified atmosphere with 5% CO2 (rel. humidity about 95%). The cells were continuously maintained in and passaged in sterile culture flasks containing nutrient mixture F-12 (DMEM/F-12 with L-Glutamine) supplemented with 10% foetal bovine serum and 10% penicillin/streptomycin solution. […] The 35 mm culture dishes upon which cells were seeded at a density allowing single cells to be recorded were placed on the dish holder of the microscope and continuously perfused (at approximately 1 ml/min) with the bath solution (sodium chloride 150 mM, potassium chloride 4 mM, calcium chloride 1.2 mM, magnesium chloride 1 mM, HEPES 10 mM, pH (NaOH) 7.4) at near physiological temperature (36±1° C.). After formation of a Gigaohm seal between the patch electrodes and individual hERG stably transfected CHO cells (pipette resistance range: 2.0 MΩ-7.0 Mω; seal resistance range: >1 Gω) the cell membrane across the pipette tip was ruptured to assure electrical access to the cell interior (whole-cell patch-configuration). In case the quality of the seal was poor, the process of seal formation was repeated with a different cell and a new pipette. […] This voltage protocol was run at least 10 times at intervals of 10 s. If current density was judged to be too low for measurement, another cell was recorded. […] During wash-in of the test item the voltage protocol indicated above was run continuously again at 10 s intervals until the steady-state level of block was reached. The four test item concentrations of the compound were applied sequentially to 3 cells in a cumulative manner. […] Based on the IC50 value the IC20 was estimated. Each concentration of the test item was analyzed in three experiments (n=3).

[1] = estimated based on the IC50 value
[2] = human, CHO cells stably expressing hERG
[3] = human, CHO cells stably expressing hERG, pH 7.4, estimated based on the IC50 value

SMILES	hTAAR1 efficacy* (human TAAR1) [%]	EC50 (human TAAR1; listed as example 13) [µM]	EC50 (human TAAR1) [µM]	Ratio DAT Ki/hTAAR1 EC50 (human DAT)	DAT selectivity ratio versus hTAAR1 EC50 (human DAT) [fold]	Ki (human DAT) [µM]	Ratio hERG IC20/hTAAR1 EC50 (hERG potassium channel)	IC20 (hERG potassium channel; [1]) [µM]	selectivity ratio (hERG potassium channel; [2])	IC50 (hERG potassium channel) [µM]	EC50 (human TAAR1; listed as example 14) [µM]	IC20 (hERG potassium channel; [3]) [µM]	EC50 (human TAAR1; listed as example 15) [µM]	EC50 (human TAAR1; listed as example 17) [µM]	EC50 (human TAAR1; listed as example 18) [µM]
O=C(Nc1ccc([C@H]2CNCCO2)cc1)c1cncc(Cl)c1 [Example 13, 5-Chloro-N-[4-[(2S)-morpholin-2-yl]phenyl]pyridine-3-carboxamide]	37	0.405	0.405	3	3	1.31	23	9.14	23	66					
Cc1cc(C(=O)Nc2ccc([C@H]3CNCCO3)cc2)cc(Cl)n1 [Example 14, 2-Chloro-6-methyl-N-[4-[(2S)-morpholin-2-yl]phenyl]pyridine-4-carboxamide]	53		0.447	16	16	7.32	48			73.2	0.447	21.6			
O=C(Nc1ccc([C@H]2CNCCO2)cc1)c1coc(-c2ccccc2)n1 [Example 15, N-[4-[(2S)-Morpholin-2-yl]phenyl]-2-phenyl-1,3-oxazole-4-carboxamide]	35		0.663	>39		> 26.1	4	2.4	4	9.65			0.663		
O=C(Nc1ccc([C@H]2CNCCO2)cc1)c1csc(-c2ccccc2)n1 [Example 16, N-[4-[(2S)-Morpholin-2-yl]phenyl]-2-phenyl-1,3-thiazole-4-carboxamide]	35		0.666	24		16.2	5	3.35	5	8.98					
Cc1cc(C(=O)Nc2ccc([C@H]3CNCCO3)cc2)ccn1 [Example 17, 2-Methyl-N-[4-[(2S)-morpholin-2-yl]phenyl]pyridine-4-carboxamide]	45		0.673	15	15	10.3	193			518		130		0.673	
Cc1cc(C(=O)Nc2ccc([C@H]3CNCCO3)cc2)cc(C)n1 [Example 18, 2,6-Dimethyl-N-[4-[(2S)-morpholin-2-yl]phenyl]pyridine-4-carboxamide]	63		0.827	>32		> 26.1	177			712		147			0.827
Cc1nc(C(=O)Nc2ccc([C@H]3CNCCO3)cc2)cs1 [Example 19, N-[4-[(2S)-Morpholin-2-yl]phenyl]2-methyl-1,3-thiazole-4-carboxamide]	32		1.02	21		21.9	8	8.32	8	60.5					
O=C(Nc1ccc([C@H]2CNCCO2)cc1)c1ccn(-c2ccccc2)n1 [Example 20, N-[4-[(2S)-Morpholin-2-yl]phenyl]-1-phenylpyrazole-3-carboxamide]	59		2.48	>11		> 26.1	1	2.49	1	10.8					
